“Also recorded” adds a separate entry of the source. Read-outs that look alike come from different tables or passages of the source.
What was measured:
[1] = tested on: PDX240 bulk organoids and MOSs; test: Cell viability drug response curves, bulk organoids versus MOSs, PDX240; type: cell-based, human; conditions: cell viabilities after 3 days of treatment
Excerpt: In some embodiments, the MOSs may be formed from cell lines grown as part of a Patient Derived Xenograft (PDX). For example, FIGS. 28A-28D illustrate MOSs formed from cultured PDX240 cells. PDX240 cells are a Patient Derived Xenograft (PDX) tumor cell line (numbered 240 based on patient source) that were human tumors grown in immunodeficient mice (PDX) to form in vivo tumors. The xenograft tissue was extracted dissociated, and used to form MOSs as described above. In this example a single cell was included in each MOS as it was formed. […] With progressive time in culture, at least some of the MOSs show the cells dividing and forming structures.
(§1) Organoids were formed from Patient Derived Xenograft cells (including the PDX240 cells described above and a second PDX cell line, PDX19187) and were compared with MOSs formed using the same cells. The organoids were formed using conventional techniques in which a large mass of MATRIGEL in a well or dish was seeded with cells and cultured until growth was confirmed. MOSs were generated from the traditional organoids.
(§2) Both traditional (“bulk”) organoids and the MOSs were then treated with the same drugs (e.g., Oxaliplatin or SN38) and cell viabilities were measured after 3 days of treatment.

[2] = tested on: MOSs derived from multiple myeloma (MM) bone marrow biopsies; test: Caspase 3/7 green dye apoptosis assay on multiple myeloma MOSs (Incucyte imaging); type: cell-based, human; conditions: MM MOSs on day 11, images every 2 hours for 4 days
Method: FIGS. 44A and 44B show the efficacy of Lenalidomide and Bortezoid on MOSs derived from multiple myeloma (MM) bone marrow biopsies. MM MOSs (on day 11) were treated with Lenalidomine (5 uM) or Bortezoid (2 nM). Caspase 3/7 green dye was added in the assay to monitor apoptosis. Incucyte images were taken every 2 hours for 4 days. […] If this test were run on, for example, traditional bulk organoids, the results would not be reliable (due to the lack of patient immune cells) leading to uncertainty in the best course of action for patient treatment.

patient tumor = test: Actual response of the patient's tumor to drug treatment; type: in vivo, human; conditions: for patient response to treatment: Example 3 patient, treated with both Oxalipalatin and Irinotecan, after 6 months of treatment
Method: (§3) In a similar set of experiments, MOSs were generated from biopsy material (FIG. 23A), and a drug effect screen was performed using the resulting MOSs. […] Thus, the MOSs correlated strongly with patient response to the standard of care drugs. In this case, the patient endured six months of side effects and toxicities that may have been avoided by the predicted response from the MOSs, indicating (within 7-10 days from the biopsy) that the tumor would not respond to these drugs.

[3] = tested on: MOSs from biopsy material; test: Drug effect screen on MOSs generated from biopsy material (Example 3); type: cell-based, human; conditions: FIGS. 23B, 23C
Method: as §3

traditional cell line = test: Traditional (2D) cell line dosed with drug; type: cell-based; conditions: all dose ranges examined; FIG. 22A
Excerpt: As mentioned above, the MOSs and methods of using them to screen for drug compositions may be used to accurately predict the response of a patient tumor to one or more drug therapies. […] For example, in FIG. 22A-22D, the MOSs, but not a cell line, was able to correlate with patient response.

[4] = tested on: tumor MOSs from patient biopsy; test: Drug screen on tumor MOSs generated from a patient biopsy (Example 2); type: cell-based, human; conditions: FIG. 22B
[5] = tested on: PDX19187 bulk organoids and MOSs; type: cell-based, human; conditions: PDX19187 (also printed PDO19187, PDZ-19187), cell viabilities after 3 days of treatment
Method: as §1, §2

mouse liver MOSs = test: Toxicity assay using mouse liver MOSs; type: cell-based; conditions: 10 mM; FIGS. 33A-33B
human liver MOSs = test: Toxicity assay using human liver MOSs; type: cell-based; conditions: 10 mM; FIGS. 34A-34B
Excerpt: Similarly, FIGS. 34A-34B also show toxicity assays using human liver MOSs.

[6] = tested on: MOSs derived from pulmonary tumor biopsy; test: Annexin V apoptosis assay on MOSs derived from a pulmonary tumor biopsy; type: cell-based, human
Method: (§4) Assays of the MOSs for these pulmonary and renal tumor biopsies were prepared with an Annexin V marker to indicate cellular apoptosis. […] If this test were run on, for example, traditional bulk organoids, the results would not be meaningful (due to the lack of patient immune cells) leading to uncertainty in the best course of action for patient treatment.
(§5) Assays of the MOSs for this pulmonary tumor biopsy were prepared with an Annexin V marker to indicate cellular apoptosis. […] If this test were run on, for example, traditional bulk organoids, the results would be less accurate (because ESK1 would not be able to reach its target) leading to uncertainty in the best course of action for patient treatment.
as §5, with “apoptosis and Cytolight Red dye to indicate tumor infiltrating lymphocytes (TIIs).” for “apoptosis.”, “(due” for “(because ESK1 would not be able”, “the inability of PBMC to penetrate the traditional bulk organoids)” for “reach its target)”
Assays of the MOSs for this pulmonary tumor biopsy were prepared with an Annexin V marker to indicate cellular apoptosis. […] This is an indication that TIIs can penetrate MOS to kill tumor cells. […]

[7] = tested on: MOSs derived from renal tumor biopsy; test: Annexin V apoptosis assay on MOSs derived from a renal tumor biopsy; type: cell-based, human
Method: as §4

## O=c1[nH]cc(F)c(=O)[nH]1 [5-FU, Fluorouracil]
[1]
  drug response curves of bulk organoids compared with MOSs (cell viability): comparable responses

## CC(C)C[C@H](NC(=O)[C@H](Cc1ccccc1)NC(=O)c1cnccn1)B(O)O [Bortezoid]
[2]; 2 nM
  response of MM MOSs in the form of tumor cell apoptosis (Caspase 3/7 green dye): does not and not

## CCc1c2c(nc3ccc(OC(=O)N4CCC(N5CCCCC5)CC4)cc13)-c1cc3c(c(=O)n1C2)COC(=O)[C@]3(O)CC [Irinotecan]
Patient tumor
  patient response to treatment: no response
[3]
  percent survival of the MOSs in the presence of the drug: lack of effect

## Nc1cccc2c1CN(C1CCC(=O)NC1=O)C2=O (stereo not drawn) [Lenalidomide]
[2]; 5 uM
  response of MM MOSs in the form of tumor cell apoptosis (Caspase 3/7 green dye): good response
[2]; 5 uM, listed as Lenalidomine
  response of MM MOSs in the form of tumor cell apoptosis (Caspase 3/7 green dye): induces apoptosis

## O=C1[O][Pt]2([NH][C@@H]3CCCC[C@H]3[NH]2)[O]C1=O [Oxaliplatin]
Traditional cell line
  effect of drug on traditional cell line: no effect
[4]
  cell survival from the tumor MOSs: significant decreases in cell survival
Patient tumor; Example 2 patient, FIGS. 22C (before) and 22D (post treatment)
  tumor response when patient treated with the drug: responded to treatment
Patient tumor
  patient response to treatment: no response
[3]
  percent survival of the MOSs in the presence of the drug: no change in the percent survival
[5]; listed as Oxalipalatin
  drug response curves of bulk organoids compared with MOSs (cell viability): comparable response

## CCc1c2c(nc3ccc(O)cc13)-c1cc3c(c(=O)n1C2)COC(=O)[C@]3(O)CC [SN38, 7-Ethyl-10-hydroxy-camptothecin]
[5]
  drug response curves of bulk organoids compared with MOSs (cell viability): comparable responses
[1]
  drug response curves of bulk organoids compared with MOSs (cell viability): comparable responses

## CC(=O)Nc1ccc(O)cc1 [acetaminophen]
Mouse liver MOSs
  effect on tissue in mouse liver MOSs versus control group: smaller and contains many dead cells
Human liver MOSs
  effect on tissue in human liver MOSs versus control group: significant increase atypical tissue structures (arrows) and debris

## Nivolumab
[6]
  response of MOSs in the form of tumor cell apoptosis (Annexin V marker): induces apoptosis; also recorded: good response
[7]
  response of MOSs in the form of tumor cell apoptosis (Annexin V marker): induces apoptosis; also recorded: good response

Source: patent US20240385173A1, “METHODS AND APPARATUS FOR TESTING IMMUNO-ONCOLOGY DRUGS AND BIOLOGICS USING MICROORGANOSPHERES” (Xilis, Inc., priority 2021, published 2024)
